From PubChem BioAssay AID248 (DTP/NCI, 2004)
“And” between values parts separate entries of the source, which are not always exact repeats. Equal entries are not always repeated. Toxic doses and inconclusive results are not listed. Rule as the data show it: active = T/C of 150% or more; inactive = T/C below 125%.

Test system: L1210 leukemia ip in BDF1 mice, survival T/C
Test: NCI In Vivo Anticancer Drug Screen. Data for tumor model L1210 Leukemia (intraperitoneal) in B6D2F1 (BDF1) mice
Conditions: endpoint: mean survival time, higher = longer survival
In short: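 Transplantable tumor model; survival measured in treated vs vehicle control mice. Value = treated/control.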

[1] = dose: 100.0 mg/kg/injection, schedule: Q04DX002 (ip), vehicle: saline with Tween-80
[2] = dose: 50.0 mg/kg/injection, schedule: Q01DX009 (ip), vehicle: saline with Tween-80
[3] = dose: 100.0 mg/kg/injection, schedule: Q01DX009 (ip), vehicle: saline with Tween-80
[4] = dose: 200.0 mg/kg/injection, schedule: Q04DX002 (ip), vehicle: saline with Tween-80
[5] = dose: 400.0 mg/kg/injection, schedule: Q04DX002 (ip), vehicle: saline with Tween-80
[6] = dose: 100.0 mg/kg/injection, schedule: Q04DX003 (ip), vehicle: saline with Tween-80
[7] = dose: 200.0 mg/kg/injection, schedule: Q01DX009 (ip), vehicle: saline with Tween-80
[8] = dose: 200.0 mg/kg/injection, schedule: Q04DX003 (ip), vehicle: saline with Tween-80
[9] = dose: 400.0 mg/kg/injection, schedule: Q01DX009 (ip), vehicle: saline with Tween-80
[10] = dose: 400.0 mg/kg/injection, schedule: Q04DX003 (ip), vehicle: saline with Tween-80
[11] = dose: 100.0 mg/kg/injection, schedule: Q04DX003 (ip), vehicle: saline
[12] = dose: 200.0 mg/kg/injection, schedule: Q04DX003 (ip), vehicle: saline
[13] = dose: 400.0 mg/kg/injection, schedule: Q04DX003 (ip), vehicle: saline
[14] = dose: 100.0 mg/kg/injection, schedule: Q01DX001 (ip), vehicle: saline
[15] = dose: 200.0 mg/kg/injection, schedule: Q01DX001 (ip), vehicle: saline
[16] = dose: 400.0 mg/kg/injection, schedule: Q01DX001 (ip), vehicle: saline

Measured: T/C

C#CCN(CC#C)C(=O)Nc1ccc(Cl)cc1
inactive: dose: 25.0 mg/kg/injection, schedule: Q04DX002 (ip), vehicle: saline with Tween-80 96 % of control | dose: 50.0 mg/kg/injection, schedule: Q04DX002 (ip), vehicle: saline with Tween-80 96 % of control | [1] 99 % of control and 106 % of control

O=C(Cc1ccccc1)Nc1ccc([N+](=O)[O-])cc1Cl
inactive: dose: 25.0 mg/kg/injection, schedule: Q01DX009 (ip), vehicle: saline with Tween-80 103 % of control | [2] 103 % of control | [3] 94 % of control and 100 % of control | [1] 104 % of control | dose: 150.0 mg/kg/injection, schedule: Q01DX009 (ip), vehicle: saline with Tween-80 92 % of control | [4] 101 % of control | dose: 225.0 mg/kg/injection, schedule: Q01DX009 (ip), vehicle: saline with Tween-80 97 % of control | dose: 335.0 mg/kg/injection, schedule: Q01DX009 (ip), vehicle: saline with Tween-80 103 % of control | [5] 96 % of control

O=C(NC/C(Br)=C/Br)Nc1cccc2ccccc12
inactive: [1] 97 % of control | [4] 90 % of control | [5] 97 % of control

Cc1cc(CSc2ssc(=S)c2-c2ccccc2)c(CSc2ssc(=S)c2-c2ccccc2)cc1C
inactive: [3] 94 % of control | [6] 112 % of control | [7] 92 % of control | [8] 106 % of control | [9] 96 % of control | [10] 95 % of control

NC1CCCCC1.[O]=[Cr](=[O])([OH])[OH]
inactive: dose: 12.5 mg/kg/injection, schedule: Q01DX009 (ip), vehicle: saline sonified 100 % of control | dose: 25.0 mg/kg/injection, schedule: Q01DX009 (ip), vehicle: saline sonified 109 % of control | dose: 50.0 mg/kg/injection, schedule: Q04DX003 (ip), vehicle: Klucel (hydroxypropylcellulose) (HPC) 102 % of control | dose: 75.0 mg/kg/injection, schedule: Q01DX001 (ip), vehicle: saline 98 % of control

CC1(C)Cc2ccccc2C(c2ccccn2)=N1
inactive: dose: 100.0 mg/kg/injection, schedule: Q04DX003 (ip), vehicle: Klucel (hydroxypropylcellulose) (HPC) 96 % of control | dose: 200.0 mg/kg/injection, schedule: Q04DX003 (ip), vehicle: Klucel (hydroxypropylcellulose) (HPC) 112 % of control | dose: 400.0 mg/kg/injection, schedule: Q04DX003 (ip), vehicle: Klucel (hydroxypropylcellulose) (HPC) 112 % of control

COC(=O)C1=C(NC(=O)Nc2ccc([N+](=O)[O-])cc2)OC(C)(C)C1c1ccc(Cl)cc1 (centres undefined)
inactive: dose: 100.0 mg/kg/injection, schedule: Q04DX003 (ip), vehicle: acetone 92 % of control | dose: 200.0 mg/kg/injection, schedule: Q04DX003 (ip), vehicle: acetone 97 % of control | dose: 400.0 mg/kg/injection, schedule: Q04DX003 (ip), vehicle: acetone 97 % of control

COc1ccc(CC(=S)N2CCOCC2)cc1
inactive: dose: 100.0 mg/kg/injection, schedule: Q01DX009 (ip), vehicle: Klucel (hydroxypropylcellulose) (HPC) 104 % of control | dose: 100.0 mg/kg/injection, schedule: Q04DX002 (ip), vehicle: Klucel (hydroxypropylcellulose) (HPC) 98 % of control | dose: 200.0 mg/kg/injection, schedule: Q01DX009 (ip), vehicle: Klucel (hydroxypropylcellulose) (HPC) 102 % of control | dose: 200.0 mg/kg/injection, schedule: Q04DX002 (ip), vehicle: Klucel (hydroxypropylcellulose) (HPC) 95 % of control | dose: 400.0 mg/kg/injection, schedule: Q01DX009 (ip), vehicle: Klucel (hydroxypropylcellulose) (HPC) 96 % of control

NCCN1C(c2ccccc2)C1c1ccccc1 (centres undefined)
inactive: dose: 50.0 mg/kg/injection, schedule: Q04DX003 (ip), vehicle: saline 94 % of control | [11] 94 % of control and 105 % of control | [12] 103 % of control | [13] 100 % of control

CNC(C)(C)CO
inactive: [11] 100 % of control | [12] 107 % of control | [13] 104 % of control

C=CCCCCCCCCC(=O)NCc1ccncc1
inactive: [6] 90 % of control

C(=C\c1nc2ccccc2s1)/c1ccccc1
inactive: [11] 103 % of control | [12] 93 % of control | [13] 104 % of control

NC1=NC(CCc2ccccc2)N(c2ccc(Cl)cc2)C(N)=N1 (centres undefined)
inactive: dose: 14.0 mg/kg/injection, schedule: Q01DX009 (ip), vehicle: steriod suspending solution 98 % of control | dose: 24.0 mg/kg/injection, schedule: Q01DX009 (ip), vehicle: steriod suspending solution 97 % of control | dose: 39.0 mg/kg/injection, schedule: Q01DX009 (ip), vehicle: steriod suspending solution 100 % of control | dose: 65.0 mg/kg/injection, schedule: Q01DX009 (ip), vehicle: steriod suspending solution 100 % of control

Cc1ccc(Cl)cc1N=Cc1cccc([N+](=O)[O-])c1
inactive: dose: 75.0 mg/kg/injection, schedule: Q04DX003 (ip), vehicle: Klucel (hydroxypropylcellulose) (HPC) 96 % of control | dose: 100.0 mg/kg/injection, schedule: Q01DX001 (ip), vehicle: Klucel (hydroxypropylcellulose) (HPC) 100 % of control | dose: 150.0 mg/kg/injection, schedule: Q04DX003 (ip), vehicle: Klucel (hydroxypropylcellulose) (HPC) 93 % of control | dose: 200.0 mg/kg/injection, schedule: Q01DX001 (ip), vehicle: Klucel (hydroxypropylcellulose) (HPC) 97 % of control | dose: 300.0 mg/kg/injection, schedule: Q04DX003 (ip), vehicle: Klucel (hydroxypropylcellulose) (HPC) 93 % of control | dose: 400.0 mg/kg/injection, schedule: Q01DX001 (ip), vehicle: Klucel (hydroxypropylcellulose) (HPC) 101 % of control

COc1ccc(/C=N/N=C(N)N)cc1
inactive: dose: 15.0 mg/kg/injection, schedule: Q01DX Z (ip), vehicle: saline 103 % of control | dose: 30.0 mg/kg/injection, schedule: Q01DX Z (ip), vehicle: saline 100 % of control | dose: 30.0 mg/kg/injection, schedule: Q01DX Z (oral), vehicle: other 93 % of control | dose: 60.0 mg/kg/injection, schedule: Q01DX Z (ip), vehicle: saline 95 % of control | dose: 60.0 mg/kg/injection, schedule: Q01DX Z (oral), vehicle: other 100 % of control | dose: 120.0 mg/kg/injection, schedule: Q01DX Z (oral), vehicle: other 98 % of control

NC1CCC(CC(=O)O)CC1 (centres undefined)
inactive: [14] 105 % of control | [15] 89 % of control | [16] 96 % of control

Cc1ccccc1OCCCCCl
inactive: [3] 95 % of control | [6] 97 % of control | [7] 88 % of control | [8] 92 % of control | [9] 89 % of control | [10] 100 % of control

CC1(C(O)CO)OCCO1 (centres undefined)
inactive: dose: 25.0 mg/kg/injection, schedule: Q04DX002 (ip), vehicle: saline 110 % of control | dose: 50.0 mg/kg/injection, schedule: Q04DX002 (ip), vehicle: saline 103 % of control | dose: 200.0 mg/kg/injection, schedule: Q04DX002 (ip), vehicle: saline 107 % of control and 110 % of control | dose: 400.0 mg/kg/injection, schedule: Q04DX002 (ip), vehicle: saline 117 % of control

Clc1cc(Cl)c(SSc2cc(Cl)c(Cl)cc2Cl)cc1Cl
inactive: [2] 102 % of control | [3] 98 % of control | [7] 98 % of control

CCC(C)C(C)NC(C)=O (centres undefined)
inactive: [11] 101 % of control | [12] 113 % of control

Nc1cn(C2OC(CO)C(O)C2O)c(=O)[nH]c1=O (centres undefined)
inactive: [14] 97 % of control | [15] 124 % of control | [16] 100 % of control
